Test results taken from patent US9096524B2, “Anthelmintic agents and their use” (Intervet International B.V., priority 2009, dated 2015).
Read-outs that look alike come from different tables or passages of the source.

Test system: A. galli (intestinal roundworm of chicken) larval stage 3; O. dentatum (nodular worm of swine) larval stages 3 and 4
Experiment: Activity against Ascaridia galli and Oesophagostomum dentatum larvae in vitro (minimum effective concentration)
Type: cell-based
[1] = in vitro, one or more of A. galli L3, O. dentatum L3, L4, threshold 1 μM, read-out: MEC (minimum effective concentration) against one or more of the tested nematodes
[2] = read-out: MEC (minimum effective concentration) against one or more of the tested nematodes, in vitro, one or more of A. galli L3, O. dentatum L3, L4, threshold 1 μM
[3] = read-out: MEC (minimum effective concentration) against one or more of the tested nematodes, in vitro, one or more of A. galli L3, O. dentatum L3, L4, threshold 7 μM
[4] = read-out: MEC (minimum effective concentration) against two or more of the tested nematodes, in vitro, two or more of A. galli L3, O. dentatum L3, L4, threshold 1 μM
[5] = in vitro, two or more of A. galli L3, O. dentatum L3, L4, threshold 1 μM, read-out: MEC (minimum effective concentration) against two or more of the tested nematodes
[6] = in vitro, one or more of A. galli L3, O. dentatum L3, L4, threshold 7 μM, read-out: MEC (minimum effective concentration) against one or more of the tested nematodes

Compound	minimal effective concentration [1]	minimal effective concentration [5]	further results
CCOc1ccc(N2CCC(OCC(=S)N3CCC(Nc4ccc([N+](=O)[O-])c(C(F)(F)F)c4)CC3)CC2)cc1 [Example 694]	< 1 µM	–	–
N#Cc1ccc(NC2CCN(C(=O)CCCN3CCN(c4ccc(C(F)(F)F)cc4)CC3)CC2)cc1Cl [Example 105, 2-chloro-4-(1-{4-[4-(4-trifluoromethyl-phenyl)-piperazin-1-yl]-butyryl}-piperidin-4-ylamino)-benzonitrile]	–	–	minimal effective concentration [2]: < 1 µM; minimal effective concentration [3]: < 7 µM; minimal effective concentration [4]: < 1 µM
O=C(CCCN1CCN(c2ccc(Cl)cc2)CC1)N1CCCN(c2ccc(SC(F)(F)F)cc2)CC1 [Example 1028]	< 1 µM	–	–
CC(C)(C)c1ccc(N2CCCN(CCCC(=O)N3CC[C@@H](Nc4ccc([N+](=O)[O-])c(C(F)(F)F)c4)C3)CC2)cc1 [Example 778]	< 1 µM	< 1 µM	–
O=C(CCCN1CCN(c2ccc(C(F)(F)F)cc2)CC1)N1CCC(Nc2ccc(Cl)c(Cl)c2)CC1 [Example 272]	–	–	minimal effective concentration [4]: < 1 µM
O=C(CCN1CCCN(c2ccc(Cl)cc2)CC1)N1CC[C@@H](Nc2ccc([N+](=O)[O-])c(C(F)(F)F)c2)C1 [Example 799]	< 1 µM	–	–
CCOc1cc(NC2CCN(C(=O)CCN3CCN(c4ccc(OC)cc4)CC3)CC2)ccc1[N+](=O)[O-] [Example 408]	–	–	minimal effective concentration [6]: < 7 µM
COc1ccc(N2CCN(CCC(=O)N3CCC(Oc4ccc([N+](=O)[O-])c(C(F)(F)F)c4)CC3)CC2)cc1OC [Example 424]	–	< 1 µM	–
N#Cc1ccc(N2CCC(NC(=O)CCN3CCN(c4cccc(Cl)c4)CC3)CC2)cc1C(F)(F)F [Example 609]	< 1 µM	–	–
CC(C)COc1cc(OC2CCN(C(=O)CCN3CCN(c4ccc(Cl)cc4F)CC3)CC2)ccc1[N+](=O)[O-] [Example 519]	–	–	minimal effective concentration [6]: < 7 µM
O=C(CCN1CCN(c2ccc(C(F)(F)F)cc2)CC1)N1CCC(Nc2cccc(C(F)(F)F)c2)CC1 [Example 276]	–	< 1 µM	–
CC(C)(C)c1ccc(N2CC3CN(CCC(=O)N4CCC(Nc5ccc([N+](=O)[O-])c(C(F)(F)F)c5)CC4)CC3C2)cc1 (stereo not drawn) [Example 128, 3-[5-(4-tert-butyl-phenyl)-hexahydro-pyrrolo[3,4-c]pyrrol-2-yl]-1-[4-(4-nitro-3-trifluoromethyl-phenylamino)-piperidin-1-yl]-propan-1-one]	–	–	minimal effective concentration [2]: < 1 µM; minimal effective concentration [3]: < 7 µM; minimal effective concentration [4]: < 1 µM
CC(CN1CCN(c2ccc(C(F)(F)F)cc2)CC1)C(=O)N1CCC(Nc2ccc(SC(F)(F)F)cc2)CC1 (stereo not drawn) [Example 661]	–	–	minimal effective concentration [4]: < 1 µM
Cc1cc(NC2CCN(C(=O)CCN3CCN(C(=O)c4cccc(C(F)(F)F)c4)CC3)CC2)ccc1[N+](=O)[O-] [Example 561]	–	< 1 µM	–
O=C(CCCN1CCN(c2ccc(C(F)(F)F)nc2)CC1)N1CCC(Nc2ccc([N+](=O)[O-])c(C(F)(F)F)c2)CC1 [Example 149, 1-[4-(4-nitro-3-trifluoromethyl-phenylamino)-piperidin-1-yl]-4-[4-(6-trifluoromethyl-pyridin-3-yl)-piperazin-1-yl]-butan-1-one]	–	–	minimal effective concentration [2]: < 1 µM; minimal effective concentration [3]: < 7 µM; minimal effective concentration [4]: < 1 µM
CCOc1cc(NC2CCN(C(=O)CCN3CCN(c4ccc(OCc5ccccc5)cc4)CC3)CC2)ccc1[N+](=O)[O-] [Example 407]	–	–	minimal effective concentration [6]: < 7 µM
O=C(CCN1CCN(c2cccc(Cl)c2)CC1)NC1CCN(c2ccc([N+](=O)[O-])c(C(F)(F)F)c2)CC1 [Example 594]	< 1 µM	–	–
O=C(CCN1CCN(C2CCCCC2)CC1)N1CCC(Nc2ccc([N+](=O)[O-])c(C(F)(F)F)c2)CC1 [Example 241]	–	< 1 µM	–
CC(C)(C)c1ccc(N2CCN(CCC(=O)N3CCC(Oc4ccc([N+](=O)[O-])c(C(F)(F)F)c4)CC3)CC2)cc1 [Example 220]	–	< 1 µM	–
N#Cc1ccc(N2CCC(NC(=O)CCCN3CCN(c4cccc(Cl)c4)CC3)CC2)cc1C(F)(F)F [Example 617]	–	< 1 µM	–
O=C(CCCN1CCN(c2ccc(C(F)(F)F)cc2)CC1)N1CCCN(c2ccc(C(F)(F)F)cn2)CC1 [Example 1014]	< 1 µM	–	–
CC(CN1CCN(c2ccc(C(C)(C)C)cc2)CC1)C(=O)N1CC[C@@H](Nc2ccc([N+](=O)[O-])c(C(F)(F)F)c2)C1 (stereo partly drawn) [Example 787]	< 1 µM	–	–
CC(CN1CCN(c2ccc(Cl)cc2)CC1)C(=O)N1CC[C@@H](Nc2ccc([N+](=O)[O-])c(C(F)(F)F)c2)C1 (stereo partly drawn) [Example 752]	–	–	minimal effective concentration [4]: < 1 µM
CS(=O)(=O)c1ccc(NC2CCN(C(=O)CCN3CCN(c4ccc(Cl)cc4)CC3)CC2)cc1C(F)(F)F [Example 341]	< 1 µM	< 1 µM	–
O=C(CCN1CCN(c2cccc(C(F)(F)F)c2)CC1)N1CCC(Nc2ccc([N+](=O)[O-])c(C(F)(F)F)c2)CC1 [Example 183]	–	< 1 µM	–

Compound	minimal effective concentration [1]	minimal effective concentration [5]	further results
O=C(CCCN1CCN(c2ccc(Cl)cc2)CC1)N1CC[C@@H](Nc2ccc([N+](=O)[O-])c(C(F)(F)F)c2)C1 [Example 792]	< 1 µM	–	–
O=[N+]([O-])c1ccc(NC2CCN(C(=S)CCN3CCN(c4ccc(OCc5ccccc5)cc4)CC3)CC2)cc1C(F)(F)F [Example 678]	–	< 1 µM	–
CCOc1cc(OC2CCN(C(=O)CCN3CCN(c4ccc(-c5ccccc5)cc4)CC3)CC2)ccc1[N+](=O)[O-] [Example 578]	–	< 1 µM	–
O=C(CCCN1CCN(c2nnc(C(F)(F)F)s2)CC1)N1CC[C@@H](Nc2ccc([N+](=O)[O-])c(C(F)(F)F)c2)C1 [Example 784]	< 1 µM	–	–
CC(C)(C)c1ccc(N2CCN(CCC(=O)N3CCC(Nc4ccc(C(F)(F)F)cn4)CC3)CC2)cc1 [Example 329]	< 1 µM	–	–
CCCc1ccc(C2CCN(CCC(=O)N3CCC(Oc4ccc([N+](=O)[O-])c(OC)c4)CC3)CC2)cc1 [Example 489]	< 1 µM	–	–
N#Cc1ccc(N2CCC(NC(=O)CCN3CCN(c4ccc(C(F)(F)F)cc4)CC3)CC2)cc1C(F)(F)F [Example 611]	–	–	minimal effective concentration [2]: < 1 µM
O=C(CCCC1CCN(c2ccc(C(F)(F)F)cc2)CC1)N1CC[C@H](Nc2ccc([N+](=O)[O-])c(C(F)(F)F)c2)C1 [Example 733]	< 1 µM	–	minimal effective concentration [6]: < 7 µM
O=C(CCCN1CCN(c2ccc(C(F)(F)F)cc2)CC1)N1CCC(Nc2cccc(C(F)(F)F)c2)CC1 [Example 81, 1-[4-(3-trifluoromethyl-phenylamino)-piperidin-1-yl]-4-[4-(4-trifluoromethyl-phenyl)-piperazin-1-yl]-butan-1-one]	–	–	minimal effective concentration [2]: < 1 µM; minimal effective concentration [3]: < 7 µM; minimal effective concentration [4]: < 1 µM
O=C(CCCN1CCN(c2ccc(C(F)(F)F)cc2)CC1)N1CCCN(c2ccc([N+](=O)[O-])c(C(F)(F)F)c2)CC1 [Example 1001]	–	–	minimal effective concentration [6]: < 7 µM
O=C(CCN1CCN(c2ccc(C(F)(F)F)cc2)CC1)N1CCCN(c2ccc([N+](=O)[O-])c(C(F)(F)F)c2)CC1 [Example 997]	–	–	minimal effective concentration [6]: < 7 µM
N#Cc1ccc(NC2CCN(C(=O)CCCN3CCC(Nc4ccc(Cl)cc4)CC3)CC2)cc1C(F)(F)F [Example 759]	–	< 1 µM	–
FC(F)(F)Oc1ccc(NC2CCN(C(=S)CCCN3CCN(c4ccc(C(F)(F)F)cc4)CC3)CC2)cc1 [Example 701]	–	< 1 µM	–
CN(C)S(=O)(=O)c1ccc(NC2CCN(C(=O)CCN3CCN(c4ccc(Cl)cc4)CC3)CC2)cc1C(F)(F)F [Example 346]	–	< 1 µM	–
CC(CN1CCN(c2ccc(Cl)cc2)CC1)C(=S)N1CCC(Nc2ccc(C#N)c(C(F)(F)F)c2)CC1 (stereo not drawn) [Example 668]	–	< 1 µM	–
O=C(CCN1CCC(c2ccc(C(F)(F)F)cc2)CC1)N1CCC(Oc2ccc([N+](=O)[O-])c(C(F)(F)F)c2)CC1 [Example 438]	–	< 1 µM	–
O=C(CCCC1CCN(c2ccc(Cl)cc2)CC1)N1CC[C@@H](Nc2ccc([N+](=O)[O-])c(C(F)(F)F)c2)C1 [Example 774]	< 1 µM	< 1 µM	–
CCOc1cc(OC2CCN(C(=O)CCN3CCN(c4ccc(C(C)(C)C)cc4)CC3)CC2)ccc1[N+](=O)[O-] [Example 502]	< 1 µM	–	minimal effective concentration [6]: < 7 µM
CC(C)(C)c1ccc(N2CCC(CCCC(=O)N3CCC(Nc4ccc([N+](=O)[O-])c(C(F)(F)F)c4)CC3)CC2)cc1 [Example 137, 4-[1-(4-tert-butyl-phenyl)-piperidin-4-yl]-1-[4-(4-nitro-3-trifluoromethyl-phenylamino)-piperidin-1-yl]-butan-1-one]	–	–	minimal effective concentration [2]: < 1 µM; minimal effective concentration [3]: < 7 µM; minimal effective concentration [4]: < 1 µM
CCOc1cc(OC2CCN(C(=O)CCN3CCN(c4ccc(OC)c(OC)c4)CC3)CC2)ccc1[N+](=O)[O-] [Example 495]	< 1 µM	< 1 µM	minimal effective concentration [6]: < 7 µM
O=C(CCCN1CCN(c2cccc(Cl)c2)CC1)NC1CCN(c2ccc(C(F)(F)F)cn2)CC1 [Example 648]	< 1 µM	–	–
CC(C)(C)c1ccc(N2CCN(CCC(=O)N3CCCN(c4ccc(SC(F)(F)F)cc4)CC3)CC2)cc1 [Example 1019]	< 1 µM	–	–
O=C(CCCN1CCN(c2ccc(C(F)(F)F)cc2)CC1)N1CCN(c2ccc(SC(F)(F)F)cc2)CC1 [Example 1033]	–	< 1 µM	–
O=C(CCN1CCC(c2ccc(F)c(F)c2)CC1)N1CCC(Oc2ccc([N+](=O)[O-])c(C(F)(F)F)c2)CC1 [Example 436]	–	< 1 µM	–
